Assay results: patent EP4104902B1, “COMPOUNDS AND M[…] SAME” (priority 2020, dated 2021)
Like-named read-outs stand apart in the source and are kept apart here.

System: recombinant rabies virus 1088 strain expressing Gaussia Luciferase (GLuc) (1088/GLuc)
Assay type: cell-based

Structure (SMILES) | IC50 (read-out: Anti-rabies activity) [µM] | IC50 (read-out: IC50) [µM]
O=C(NCCO)[C@@]12C[C@@H]3CN(CC4CCCCC4)[C@@H]([C@@H]3CN1)[C@H]2Cc1cccc2ccccc12 (relative stereo) [IF-619] | 10 to 30 | –
CC(C)C[C@@H]1[C@@H]2[C@@H]3CN[C@@]1(C(=O)NCCc1ccccc1)C[C@@H]3CN2CC(C)C (relative stereo) [IF-725] | 10 to 30 | –
CCCCCCNC(=O)[C@@]12C[C@@H]3CN(Cc4ccccc4)[C@@H]([C@@H]3CN1)[C@H]2CCCNC(=N)N (relative stereo) [IF-285] | 10 to 30 | –
CC(C)CCNC(=O)[C@@]12C[C@@H]3CN(Cc4ccccc4)[C@@H]([C@@H]3CN1)[C@H]2Cc1ccccc1 (relative stereo) [IF-665] | < 5 | –
CC(C)CNC(=O)[C@@]12C[C@@H]3CN(Cc4ccc(F)cc4)[C@@H]([C@@H]3CN1)[C@H]2CCc1ccccc1 (relative stereo) [IF-652] | < 5 | –
CC(C)C[C@@H]1[C@@H]2CN[C@@]3(C(=O)NCc4ccccc4)[C@@H](C2)CN(Cc2ccc(O)cc2)[C@@H]13 (relative stereo) [IB-787] | 10 to 30 | –
CC(C)CNC(=O)[C@]12NC[C@@H]3C[C@H]1CN(CCO)[C@H]2[C@@H]3Cc1cccc2ccccc12 (relative stereo) [IB-621] | < 5 | –
CC(C)CC[C@@H]1[C@@H]2CN[C@@]3(C(=O)NCc4ccccc4)[C@@H](C2)CN(CCC(=O)O)[C@@H]13 (relative stereo) [IB-694] | 10 to 30 | –
N=C(N)NCCCN1C[C@@H]2C[C@H]3CN[C@]2(C(=O)NCCc2ccccc2)[C@@H]1[C@@H]3Cc1cccc2ccccc12 (relative stereo) [IB-327] | 10 to 30 | –
O=C(NCCO)[C@]12NC[C@@H]3C[C@H]1CN(Cc1ccccc1)[C@H]2[C@@H]3Cc1ccccc1 (relative stereo) [IB-676] | 10 to 30 | –
O=C(NCc1ccccc1)[C@@]12C[C@@H]3CN(Cc4cccc5ccccc45)[C@@H]([C@@H]3CN1)[C@H]2Cc1ccc(O)cc1 (relative stereo) [IF-505] | < 5 | –
O=C(NCc1ccccc1)[C@@]12C[C@@H]3CN(CCc4ccccc4)[C@@H]([C@@H]3CN1)[C@H]2Cc1ccc(O)cc1 (relative stereo) [IF-640] | 10 to 30 | –
CC(C)CC1C2CNC3(C(=O)NCc4ccccc4)C(C2)CN(Cc2ccc(N(C)C)cc2)C13 (centres unmarked) [IB-873] | 5 to 10 | –
CC(C)C[C@@H]1[C@@H]2[C@@H]3CN[C@@]1(C(=O)NCc1cccc4ccccc14)C[C@@H]3CN2CC(C)C (relative stereo) [IF-726] | 10 to 30 | –
COc1ccc(CN2CC3CC4CNC3(C(=O)NCc3ccccc3)C2C4CC(C)C)cc1 (centres unmarked) [IB-866] | 5 to 10 | –
CC(C)C[C@@H]1[C@@H]2[C@@H]3CN[C@@]1(C(=O)NCc1ccccc1)C[C@@H]3CN2CCc1ccccc1 (relative stereo) [IF-639] | < 5 | –
CC(C)CCC1C2C3CNC1(C(=O)NCc1cccc4ccccc14)CC3CN2CCC(=O)O (centres unmarked) [IF-422] | 10 to 30 | –
O=C(NCc1ccc(O)cc1)[C@@]12C[C@@H]3CN(Cc4ccccc4)[C@@H]([C@@H]3CN1)[C@H]2CCc1ccccc1 (relative stereo) [IF-565] | < 5 | –
CC(C)CC[C@@H]1[C@@H]2CN[C@@]3(C(=O)NCCC(N)=O)[C@@H](C2)CN(Cc2ccc(F)cc2)[C@@H]13 (relative stereo) [IB-365] | 10 to 30 | –
CC(C)CCN1C[C@H]2C[C@]3(C(=O)NCc4ccc(O)cc4)NC[C@H]2[C@H]1[C@H]3CCc1ccccc1 (relative stereo) [IF-464] | 10 to 30 | –
N=C(N)NCCCNC(=O)[C@]12NC[C@@H]3C[C@H]1CN(Cc1ccccc1)[C@H]2[C@@H]3Cc1cccc2ccccc12 (relative stereo) [IB-280] | 10 to 30 | –

Structure (SMILES) | IC50 (read-out: Anti-rabies activity) [µM] | IC50 (read-out: IC50) [µM]
CCCCCCNC(=O)[C@@]12C[C@@H]3CN(Cc4cccc5ccccc45)[C@@H]([C@@H]3CN1)[C@H]2CCCNC(=N)N (relative stereo) [IF-243] | < 5 | –
CC(C)CCN1C[C@H]2C[C@]3(C(=O)NCCO)NC[C@H]2[C@H]1[C@H]3Cc1cccc2ccccc12 (relative stereo) [IF-611] | 10 to 30 | –
O=C(NCc1ccc(F)cc1)C12NCC3CC1CN(CCO)C2C3CCc1ccccc1 (centres unmarked) [IB-492] | < 5 | –
COc1ccc(CNC(=O)C23N=CC4CC2CN(CC(C)C)C3C4CCc2ccccc2)cc1 (centres unmarked) [IIB-333] | < 5 | –
CC(C)CNC(=O)C12NCC3CC1CN(Cc1ccc(O)cc1)C2C3CCCNC(=N)N (centres unmarked) [IB-203] | 10 to 30 | –
CC(C)CC[C@@H]1[C@@H]2CN[C@@]3(C(=O)NCCCNC(=N)N)[C@@H](C2)CN(Cc2cccc4ccccc24)[C@@H]13 (relative stereo) [IB-353] | < 5 | –
O=C(NCc1ccc(F)cc1)[C@@]12C[C@@H]3CN(CCO)[C@@H]([C@@H]3CN1)[C@H]2CCc1ccccc1 (relative stereo) [IF-516] | < 5 | –
CC(C)CNC(=O)[C@@]12C[C@@H]3CN(Cc4ccccc4)[C@@H]([C@@H]3CN1)[C@H]2Cc1ccccc1 (relative stereo) [IF-6] | 10 to 30 | 16.3
CC(C)C[C@@H]1[C@@H]2[C@@H]3CN[C@@]1(C(=O)NCc1cccc4ccccc14)C[C@@H]3CN2CC(N)=O (relative stereo) [IF-81] | 10 to 30 | –
CC(C)CCNC(=O)[C@@]12C[C@@H]3CN(CC4CCCCC4)[C@@H]([C@@H]3CN1)[C@H]2Cc1ccccc1 (relative stereo) [IF-658] | < 5 | –
CC(C)CNC(=O)[C@@]12C[C@@H]3CN(CC(C)C)[C@@H]([C@@H]3CN1)[C@H]2Cc1cccc2ccccc12 (relative stereo) [IF-680] | 10 to 30 | –
CC(C)CN1CC2CC3(C(=O)NCCC(=O)O)NCC2C1C3Cc1cccc2ccccc12 (centres unmarked) [IF-428] | 10 to 30 | –
CC(C)CCNC(=O)[C@@]12C[C@@H]3CN(CC(C)C)[C@@H]([C@@H]3CN1)[C@H]2Cc1cccc2ccccc12 (relative stereo) [IF-674] | 10 to 30 | –
Cc1ccc(CNC(=O)[C@@]23C[C@@H]4CN(CC(C)C)[C@@H]([C@@H]4C=N2)[C@H]3Cc2ccccc2)cc1 (relative stereo) [IIF-16] | 10 to 30 | 28.7
O=C(NCc1ccc(O)cc1)[C@@]12C[C@@H]3CN(CCc4ccccc4)[C@@H]([C@@H]3CN1)[C@H]2Cc1ccccc1 (relative stereo) [IF-469] | 10 to 30 | –
CC(C)C[C@@H]1[C@@H]2[C@@H]3CN[C@@]1(C(=O)NCc1ccc(O)cc1)C[C@@H]3CN2CC1CCCCC1 (relative stereo) [IF-478] | < 5 | –
CC(C)C[C@@H]1[C@@H]2[C@@H]3CN[C@@]1(C(=O)NCc1ccccc1)C[C@@H]3CN2CC1CCCCC1 (relative stereo) [IF-644] | < 5 | –
COc1ccc(CNC(=O)[C@@]23C[C@@H]4CN(CCC(C)C)[C@@H]([C@@H]4C=N2)[C@H]3Cc2ccccc2)cc1 (relative stereo) [IIF-329] | < 5 | –
CC(C)CN1C[C@H]2C[C@]3(C(=O)NCc4ccc(O)cc4)NC[C@H]2[C@H]1[C@H]3CCc1ccccc1 (relative stereo) [IF-576] | 10 to 30 | –
O=C(NCc1ccccc1)[C@]12NC[C@@H]3C[C@H]1CN(CCO)[C@H]2[C@@H]3CCc1ccccc1 (relative stereo) [IB-618] | < 5 | –
N=C(N)NCCCN1CC2CC3(C(=O)NCCc4ccccc4)NCC2C1C3Cc1ccc(O)cc1 (centres unmarked) [IF-359] | 10 to 30 | –

Structure (SMILES) | IC50 (read-out: Anti-rabies activity) [µM] | IC50 (read-out: IC50) [µM]
CC(C)CC1C2C=NC3(C(=O)NCc4ccccc4)C(C2)CN(Cc2ccc(N(C)C)cc2)C13 (centres unmarked) [IIB-94] | 5 to 10 | –
NC(=O)CCNC(=O)[C@@]12C[C@@H]3CN(Cc4ccc(F)cc4)[C@@H]([C@@H]3CN1)[C@H]2Cc1cccc2ccccc12 (relative stereo) [IF-539] | < 5 | –
CC(C)CC1C2CNC3(C(=O)NCc4ccccc4)C(C2)CN(Cc2cccc(Cl)c2)C13 (centres unmarked) [IB-865] | 5 to 10 | –
Cc1cccc(C[C@@H]2[C@@H]3[C@@H]4CN[C@@]2(C(=O)NCc2ccccc2)C[C@@H]4CN3CC(C)C)c1 (relative stereo) [IF-13] | 10 to 30 | 13.1
N=C(N)NCCC[C@@H]1[C@@H]2CN[C@@]3(C(=O)NCCc4ccccc4)[C@@H](C2)CN(Cc2ccccc2)[C@@H]13 (relative stereo) [IB-247] | 10 to 30 | –
N=C(N)NCCC[C@@H]1[C@@H]2CN[C@@]3(C(=O)NCc4ccc(F)cc4)[C@@H](C2)CN(Cc2ccccc2)[C@@H]13 (relative stereo) [IB-250] | 10 to 30 | –
CC(C)CC[C@@H]1[C@@H]2CN[C@@]3(C(=O)NCCO)[C@@H](C2)CN(Cc2ccccc2)[C@@H]13 (relative stereo) [IB-680] | 10 to 30 | –
CC(C)C[C@@H]1[C@@H]2CN[C@@]3(C(=O)NCCc4ccccc4)[C@@H](C2)CN(Cc2ccc(O)cc2)[C@@H]13 (relative stereo) [IB-540] | 10 to 30 | –
CC(C)CCN1CC2CC3(C(=O)NCCc4ccccc4)NCC2C1C3CC(C)C (centres unmarked) [IF-437] | 10 to 30 | –
CC(C)CNC(=O)[C@]12NC[C@@H]3C[C@H]1CN(CCc1ccccc1)[C@H]2[C@@H]3Cc1ccccc1 (relative stereo) [IB-759] | < 5 | –
CC(C)C[C@@H]1[C@@H]2CN[C@@]3(C(=O)NCc4cccc5ccccc45)[C@@H](C2)CN(CC(N)=O)[C@@H]13 (relative stereo) [IB-81] | 10 to 30 | –
NC(=O)CN1CC2CC3CNC2(C(=O)NCCc2ccccc2)C1C3Cc1ccccc1 (centres unmarked) [IB-87] | < 5 | –
CC(C)C[C@@H]1[C@@H]2[C@@H]3CN[C@@]1(C(=O)NCc1cccc4ccccc14)C[C@@H]3CN2CCO (relative stereo) [IF-542] | < 5 | –
CCCCCCNC(=O)[C@@]12C[C@@H]3CN(CC(N)=O)[C@@H]([C@@H]3CN1)[C@H]2CCc1ccccc1 (relative stereo) [IF-109] | 10 to 30 | –
O=C(O)CCC1C2C3CNC1(C(=O)NCc1ccc(O)cc1)CC3CN2CC1CCCCC1 (centres unmarked) [IF-447] | 10 to 30 | –
CCOc1ccc(CN2CC3CC4(C(=O)NCc5ccccc5)N=CC3C2C4CC(C)C)cc1 (centres unmarked) [IIF-97] | 10 to 30 | –
O=C(NCc1ccccc1)[C@]12NC[C@@H]3C[C@H]1CN(Cc1ccccc1)[C@H]2[C@@H]3Cc1cccc2ccccc12 (relative stereo) [IB-777] | < 5 | –
CC(C)CC1C2CNC3(C(=O)NCc4cccc(O)c4)C(C2)CN(Cc2ccc(N(C)C)cc2)C13 (centres unmarked) [IB-891] | 10 to 30 | –
CC(C)CC1C2CNC3(C(=O)NCCC(N)=O)C(C2)CN(CCc2ccccc2)C13 (centres unmarked) [IB-708] | < 5 | –
COc1ccc(CN2CC3CC4(C(=O)NCc5ccccc5)N=CC3C2C4CC(C)C)cc1 (centres unmarked) [IIF-85] | 5 to 10 | –
